Measurements from EP1140110B1, “CLATHRATES OF DEHYDROEPIANDROSTERONE AND CORRESPONDING PHARMACEUTICAL COMPOSITIONS” (Euphar Group S.R.L., priority 1998, dated 2000).

What was measured:
[1] = general statement in prior art section; cited from earlier work
[2] = Kinetics and metabolism of exogenous DHEA (100 mg single oral dose, young and elderly male subjects); assay type: in vivo; conditions: 100 mg DHEA single oral dose
Experimental: This first part of the experimentation was carried out with the purpose of verifying the kinetics and processes of sulfoconjugation and bioconversion of DHEA as such administered to male subjects. The said subjects were divided into two groups according to age: one group of 7 young subjects aged between 24 and 32, and one group of 10 elderly subjects, aged between 67 and 86. Each one of these subjects was administered 100 mg of DHEA in a single dose by oral route. At 0.5, 1, 2, 3, 4, 6, 9,12 and 24 hours from administration, the blood levels of DHEA, DHEA sulphate, total testosterone and 17-β-estradiol were determined. The evaluations were carried out using the parameter of the maximum delta (maximum peak reached, from which the basal values were subtracted) and the parameter of the area under the curve (triangulation system).

For `C[C@]12CC[C@H](O)CC1=CC[C@@H]1[C@@H]2CC[C@]2(C)C(=O)CC[C@@H]12` [DHEA, dehydroepiandrosterone], the solubility in water [1] is given as “practically insoluble in water”, the “DHEA blood level response to administration, elderly versus young subjects” value [2] is given as “significantly greater in the elderly subjects” and the “DHEA sulphate blood level response to administration, elderly versus young subjects” value [2] is given as “significantly greater in the elderly subjects”. For the same compound, the “molar ratio between DHEA sulphate and DHEA in the response-to-administration curves, young versus elderly” value [2] was “did not show any significant differences”, the “time of DHEA sulphate blood level peak from administration” value ([2]; both groups (young and elderly)) was “approximately two” and the “blood levels of 17-β-estradiol versus placebo” value ([2]; compared with the testosterone finding (evident only in elderly subjects)) was “the same phenomenon occurred”. For the same compound, the “difference in profile of the testosterone levels versus placebo” value ([2]; elderly subjects, two-way ANOVA) was “statistically evident” and the “profile of the testosterone levels versus placebo” value ([2]; young subjects) was “did not undergo any substantial differences”.
